Test results reported in US8034748B2, “Additives for inhibiting the formation of gas hydrates” (Clariant Produkte (Deutschland) GmbH, priority 2001, dated 2011).

Experiment: Test as antiagglomerant (agglomerate inhibition) in stirred steel autoclave
Conditions: 5 000 ppm additive based on aqueous phase; water and white spirit 1:2; gas 1, 90 bar; 2° C. for 25 hours
Protocol: To investigate the inhibiting action of the compounds according to the invention, a stirred steel autoclave having temperature control, pressure and torque sensor having an internal volume of 450 ml was used. For investigations of kinetic inhibition, the autoclave was filled with distilled water and gas in a volume ratio of 20:80, and, for investigations of agglomerate inhibition, condensate was additionally added. Finally, natural gas was injected at different pressures.
Starting from a starting temperature of 17.5° C., the autoclave was cooled to 2° C. within 2 h, then stirred at 2° C. for 18 h and heated back up to 17.5° C. within 2 h. An initial pressure decrease corresponding to the thermal compression of the gas is observed. When the formation of gas hydrate nuclei occurs during the supercooling time, the pressure measured falls, and an increase in the torque measured and a slight increase in temperature can be observed. Without inhibitor, further growth and increasing agglomeration of the hydrate nuclei lead rapidly to a further increase in the torque. When the mixture is heated, the gas hydrates decompose, so that the starting state of the experimental series is attained.
On the other hand, the torque measured in the autoclave serves as a parameter for the agglomeration of the hydrate crystals. The pressure drop measured (Δp) allows a direct conclusion on the amount of hydrate crystals formed.
Gas 1: 79.3% methane, 10.8% ethane, 4.8% propane, 1.9% butane, 1.4% carbon dioxide, 1.8% nitrogen. Supercooling below the equilibrium temperture of hydrate formation at 50 bar: 12° C.
In order to test the effectiveness as agglomerate inhibitors, the test autoclave used above was initially charged with water and white spirit (20% of the volume in a ratio of 1:2) and, based on the aqueous phase, 5 000 ppm of the particular additive were added. At an autoclave pressure of 90 bar using gas 1 and a stirrer speed of 5 000 rpm, the temperature was cooled from initially 17.5° C. within 2 hours to 2° C., then the mixture was stirred at 2° C. for 25 hours and heated again. The pressure drop caused by hydrate formation and the resulting torque at the stirrer, which is a measure of the agglomeration of the gas hydrates, were measured.

Row | SMILES | Pressure drop Δ p [bar] | Temperature rise Δ T [K] | Torque Mmax [Ncm]
1 | CCCCC(CC)COC(=O)COCC[N+](C)(CCOCC(=O)OCC(CC)CCCC)C1CCCC1.COS(=O)(=O)[O-] (stereo not drawn) [Example 46] | 15.1 | 0.3 | 0.3
2 | CCCCC(CC)COC(=O)COCC[N+](C)(CCOCC(=O)OCC(CC)CCCC)C1CCCCC1.COS(=O)(=O)[O-] (stereo not drawn) [Example 48] | 15.3 | 0.7 | 0.4
3 | CCCCC(CC)COC(=O)COCC[N+](C)(CCCC)CCOCC(=O)OCC(CC)CCCC.COS(=O)(=O)[O-] (stereo not drawn) [Example 50] | 10.1 | 0.1 | 0.2
